Assay results reported in US20040248991A1, “Compositions for lessening oxidative stress” (priority 2001, published 2004).

What was measured:
rats = conditions: continuous administration, 1200 mg/kg/day for 52 weeks; cited from earlier work
urinary 8OH-dG [1] = test: Oxidative stress lessening effect on spontaneously diabetic rat (urinary 8OH-dG); assay type: in vivo; conditions: GK rats, 0.1% by weight in feed
Method: (§1) The effect of lessening oxidative stress in vivo was evaluated with urinary 8-hydroxydeoxyguanosine (8OH-dG) having high effectiveness as an oxidative stress marker. This material results from nucleic acid damage due to oxidative stress, and is discharged into urine without undergoing further metabolism. It is thus thought that the amount of oxidative stress in vivo and the amount of 8OH-dG discharged have a close relationship therebetween. A decrease in amount of the material in urine means a reduction in oxidative stress in vivo and the prevention of damage to nucleic acid.
The oxidative stress lessening effect of each of reduced and oxidized coenzyme Q10 in vivo was evaluated by using GK rats with spontaneous diabetes which induced spleen tissue denaturation due to oxidative stress in vivo. A feed (CE-2, produced by CLEA JAPAN, INC.) containing 0.1% by weight of reduced coenzyme Q10 (containing about 2% by weight of oxidized coenzyme Q10) or oxidized coenzyme Q10 was freely given to GK rats (5-week old, male, n=4 in each group). In a control group, the feeds not containing coenzyme Q10 was freely given to the rats. 2 weeks and 4 weeks after, urine was collected, and the amount of urinary 8OH-dG was determined by the same method as in Example 1. […] In the oxidized coenzyme Q10 administration group, the amount of urinary 8OH-dG measured 2 weeks after the administration was decreased to 58% of the control group, and the amount of urinary 8OH-dG measured 4 weeks after the administration was deceased to 52% of the control group.
The oxidative stress lessening effect of a typical antioxidant, vitamin E, was evaluated by using GK rats in the same test system as in Example 2. Like coenzyme Q10, vitamin E was mixed with a feed at a ratio of 0.1% by weight, and the resulting foodstuff was freely given to the GK rats. 2 weeks and 4 weeks after the feeding, the amount of urinary 8OH-dG was determined. […] In comparison to the coenzyme Q10 administration group of Example 2, 2 weeks after, the decreasing effect in Reference Example 1 was lower the effects of both the reduced form and the oxidized form in Example 2, and 4 weeks after, the effect was at the same level as that of the oxidized coenzyme Q10 and lower than that of the reduced coenzyme Q10 in Example 2.

urinary 8OH-dG [2] = test: Oxidative stress lessening effect on spontaneously diabetic mouse (urinary 8OH-dG); assay type: in vivo; conditions: KK-Ay mice, 4 weeks
Method: as §1
The dose dependency of the oxidative stress lessening effect of each of reduced and oxidized coenzyme Q10 was evaluated by the same method as that used for GK rats except that KK-Ay mice with spontaneous diabetes and having a higher blood sugar level than that of GK rats were used. KK-Ay 5-week old male mice were used, and evaluated in groups in each of which n=11. Oxidized coenzyme Q10 or reduced coenzyme Q10 (containing about 2% by weight of oxidized coenzyme Q10) was mixed with a purified feed (produced by CLEA JAPAN, INC.) at each of ratios of 0.02% by weight, 0.1% by weight, and 0.5% by weight, and each mixture was freely given to the KK-Ay mice. In a control group, the purified feed not containing coenzyme Q10 was freely given to rats. 4 weeks after the supply, urine was collected, and the amount of urinary 8OH-dG was determined by the same method as in Example 1. […] In the reduced coenzyme Q10 administration group, with a dose of 0.02% by weight, the lessening effect was low (82% of the control group), while with a dose of 0.1% by weight or more, the lessening effect was significant (dose of 0.1% by weight: 73% of the control group, dose of 0.5% by weight: 56% of the control group). In the oxidized coenzyme Q10 administration group, the dose-dependent lessening effect was observed without showing a significant difference, and with a dose of 0.5% by weight, the amount of urinary 8OH-dG was 78% of that of the control group.

[3] = system: spleen tissues of GK rats; test: Tissue protecting effect on spontaneously diabetic rat (histopathological evaluation of spleen tissue denaturation); assay type: in vivo; conditions: oral administration for 7 weeks, spleen histopathology, four examples per group
Method: The protective effect of each of oxidized coenzyme Q10 and reduced coenzyme Q10 (containing about 2% by weight of oxidized coenzyme Q10) on denaturation of the spleen tissues of GK rats by using the same test system as in Example 1. As a control, a soybean oil solution not containing coenzyme Q10 was orally administered. After the coenzyme Q10 was administered for 7 weeks, the spleen was extracted from each rat, and the degree of tissue denaturation was histopathologically evaluated.
The tissue protecting effect of vitamin E was evaluated by the same method as in Example 4.

urinary 8OH-dG [4] = test: Oxidative stress lessening effect on normal rat (urinary 8OH-dG by ELISA); assay type: in vivo; conditions: SD rats, oral soybean oil solution, 100 mg/kg/day for 4 weeks
Method: as §1
A soybean oil solution of oxidized coenzyme Q10 or reduced coenzyme Q10 (containing about 2% of oxidized coenzyme Q10) was orally administered to SD rats (6-week old, male) in a dose of 100 mg/kg/day for 4 weeks. 4 weeks after, urine was collected, and the amount of urinary 8OH-dG was determined by an ELISA kit (Japan Institute for the Control of Aging).

[5] = cited from earlier work
kidney dialysis patients = conditions: daily dose of 800 IU; cited from earlier work
[6] = 2 weeks after the administration
[7] = 4 weeks after the administration
[8] = listed as Oxidized coenzyme Q10

COC1=C(OC)C(=O)C(C/C=C(\C)CC/C=C(\C)CC/C=C(\C)CC/C=C(\C)CC/C=C(\C)CC/C=C(\C)CC/C=C(\C)CC/C=C(\C)CC/C=C(\C)CCC=C(C)C)=C(C)C1=O [coenzyme Q10]
toxic effect in chronic toxicity test (rats): no toxic effect was observed

COC1=C(OC)C(=O)C(C/C=C(\C)CC/C=C(\C)CC/C=C(\C)CC/C=C(\C)CC/C=C(\C)CC/C=C(\C)CC/C=C(\C)CC/C=C(\C)CC/C=C(\C)CCC=C(C)C)=C(C)C1=O [oxidized coenzyme Q10]
amount of urinary 8OH-dG relative to control group (assumed as 100%) (urinary 8OH-dG [1]; [6]): 58% | amount of urinary 8OH-dG relative to control group (assumed as 100%) (urinary 8OH-dG [1]; [7]): 52% | amount of urinary 8OH-dG relative to control group (urinary 8OH-dG [2]; 0.5% by weight in feed): 78% | Number of examples with finding: Islet fibrillation 1+ [3]: two | Number of examples with finding: Islet fibrillation 2+ [3]: two | Number of examples with finding: Normal [3]: 0 | Number of examples with finding: Islet fibrillation 1+ [3, 8]: 2 | Number of examples with finding: Islet fibrillation 2+ [3, 8]: 2 | amount of urinary 8OH-dG relative to solvent control group (assumed as 100%) (urinary 8OH-dG [4]): about 60% | antioxidative activity in vitro [5]: exhibits no antioxidative activity

COc1c(O)c(C)c(C/C=C(\C)CC/C=C(\C)CC/C=C(\C)CC/C=C(\C)CC/C=C(\C)CC/C=C(\C)CC/C=C(\C)CC/C=C(\C)CC/C=C(\C)CCC=C(C)C)c(O)c1OC [reduced coenzyme Q10]
amount of urinary 8OH-dG relative to control group (assumed as 100%) (urinary 8OH-dG [1]; [6]): about 40% | amount of urinary 8OH-dG relative to control group (assumed as 100%) (urinary 8OH-dG [1]; [7]): kept at the same level | amount of urinary 8OH-dG relative to control group (urinary 8OH-dG [2]; 0.02% by weight in feed): 82% | amount of urinary 8OH-dG relative to control group (urinary 8OH-dG [2]; 0.1% by weight in feed): 73% | amount of urinary 8OH-dG relative to control group (urinary 8OH-dG [2]; 0.5% by weight in feed): 56% | Number of examples with finding: Islet fibrillation 1+ [3]: tree | Number of examples with finding: Islet fibrillation 2+ [3]: one | Number of examples with finding: Normal [3]: 0 | Number of examples with finding: Islet fibrillation 1+ ([3]; listed as Reduced coenzyme Q10): 3 | Number of examples with finding: Islet fibrillation 2+ ([3]; listed as Reduced coenzyme Q10): 1 | amount of urinary 8OH-dG relative to solvent control group (assumed as 100%) (urinary 8OH-dG [4]): about 40% | antioxidative activity in vitro [5]: exhibits antioxidative activity in vitro

vitamin E [reference compound]
increase of risk of brain hemorrhage as a side effect (kidney dialysis patients): 63% | patients died from hemorrhagic diseases (kidney dialysis patients): two | amount of urinary 8OH-dG relative to control group (assumed as 100%) (urinary 8OH-dG [1]; [6]): about 80% | amount of urinary 8OH-dG relative to control group (assumed as 100%) (urinary 8OH-dG [1]; [7]): 51% | Number of examples with finding: Islet fibrillation 1+ [3]: two | Number of examples with finding: Islet fibrillation 2+ [3]: two | Number of examples with finding: Normal [3]: 0 | Number of examples with finding: Islet fibrillation 1+ ([3]; listed as VE): 2 | Number of examples with finding: Islet fibrillation 2+ ([3]; listed as VE): 2
